Test results reported in patent US20120282245A1, “BIOMARKERS AND ASSAYS FOR THE TREATMENT OF CANCER” (BIOGEN IDEC MA INC., priority 2006, published 2012).

Experiments:
canonical NFκB1 pathway = test: Western blot for phosphorylated IκBα and RelA (canonical NFκB1 activation); type: cell-based; conditions: DLD-1 and WiDr cells, TNFα 20 ng/ml
Method: (§1) DLD-1 and WiDr adenocarcinoma cell lines were obtained from ATCC (Manassas, Va.), and cultured in MEM Earle's medium supplemented with 10% FBS. Antibodies against LTβR (N-15), TRAF3 (H-20 and H-122), TRAF2 (H-249), and NFκB2 (C-5) were obtained from Santa Cruz Biotechnology (Santa Cruz, Calif.). Antibodies against phosphorylated IκBα (5A5), phosphorylated RelA, and NIK were purchased from Cell Signaling Technologies (Beverly, Mass.).
LTβR was activated using 100 ng/ml of a humanized bi-specific, activating antibody (BS-1) developed at Biogen Idec, Inc. TNFα was used at a concentration of 20 ng/ml. During stimulation, cells were kept in a 37° C. incubator for indicated times.
(§2) Cells were treated for 10 minutes at 37° C. with media or activating antibody (BS-1) and washed twice in ice-cold PBS with protease and phosphatase inhibitors, followed by lysis by scraping in ice-cold lysis buffer [50 mM PIPES pH 6.8, 100 mM KCl, 2 mM MgCl2, 1 mM EGTA, 0.2% NP-40, and 10% Glycerol, supplemented with Complete EDTA-free protease inhibitor cocktail (Roche, Indianapolis, Ind.), 10 mM Sodium Fluoride, and 100 μM Sodium Orthovanadate]. […] Blots were developed using SuperSignal chemiluminescent detection substrates (Pierce), and detected on Biomax X-ray films (Kodak, Rochester, N.Y.) and/or directly on a Kodak ImageStation 2000R luminescence detector.

TRAF3 = test: Western blot for TRAF3 protein level; type: cell-based; conditions: DLD-1 cells; BS-1 100 ng/ml or TNFα 20 ng/ml
Method: as §1
as §2, with “Orthovanadate]. Lysates were centrifuged at 14000 RPM for 30 minutes at 4° C., and supernatants were pre-cleared with normal goat IgG-agarose beads (Sigma, St. Louis, Mo.) by incubating on a rotator at 4° C.” for “Orthovanadate].”, “detector. […]” for “detector.”

TNFα was tested, and the “activation of NFκB1” value (canonical NFκB1 pathway) was “identical in both cell-lines” and the “TRAF3 level after stimulation” value (TRAF3) was “increases the levels of TRAF3”.
